Experimental data reported in ChEMBL document CHEMBL5512601, “Small-molecule inhibitors targeting apoptosis signal-regulated kinase 1” (Eur J Med Chem, 2023).
pEC50, pIC50: −log10 of the molar value. Each block holds one compound with its values, some of them ahead of it.

Experiments:
[1] = biological target: T1, Mitogen-activated protein kinase kinase kinase 5 (Homo sapiens, UniProt Q99683); test: Inhibition of ASK1 phosphorylation in HEK293T cells incubated for 1 hr; format: cell-based
T1 sequence (Q99683 whole entry): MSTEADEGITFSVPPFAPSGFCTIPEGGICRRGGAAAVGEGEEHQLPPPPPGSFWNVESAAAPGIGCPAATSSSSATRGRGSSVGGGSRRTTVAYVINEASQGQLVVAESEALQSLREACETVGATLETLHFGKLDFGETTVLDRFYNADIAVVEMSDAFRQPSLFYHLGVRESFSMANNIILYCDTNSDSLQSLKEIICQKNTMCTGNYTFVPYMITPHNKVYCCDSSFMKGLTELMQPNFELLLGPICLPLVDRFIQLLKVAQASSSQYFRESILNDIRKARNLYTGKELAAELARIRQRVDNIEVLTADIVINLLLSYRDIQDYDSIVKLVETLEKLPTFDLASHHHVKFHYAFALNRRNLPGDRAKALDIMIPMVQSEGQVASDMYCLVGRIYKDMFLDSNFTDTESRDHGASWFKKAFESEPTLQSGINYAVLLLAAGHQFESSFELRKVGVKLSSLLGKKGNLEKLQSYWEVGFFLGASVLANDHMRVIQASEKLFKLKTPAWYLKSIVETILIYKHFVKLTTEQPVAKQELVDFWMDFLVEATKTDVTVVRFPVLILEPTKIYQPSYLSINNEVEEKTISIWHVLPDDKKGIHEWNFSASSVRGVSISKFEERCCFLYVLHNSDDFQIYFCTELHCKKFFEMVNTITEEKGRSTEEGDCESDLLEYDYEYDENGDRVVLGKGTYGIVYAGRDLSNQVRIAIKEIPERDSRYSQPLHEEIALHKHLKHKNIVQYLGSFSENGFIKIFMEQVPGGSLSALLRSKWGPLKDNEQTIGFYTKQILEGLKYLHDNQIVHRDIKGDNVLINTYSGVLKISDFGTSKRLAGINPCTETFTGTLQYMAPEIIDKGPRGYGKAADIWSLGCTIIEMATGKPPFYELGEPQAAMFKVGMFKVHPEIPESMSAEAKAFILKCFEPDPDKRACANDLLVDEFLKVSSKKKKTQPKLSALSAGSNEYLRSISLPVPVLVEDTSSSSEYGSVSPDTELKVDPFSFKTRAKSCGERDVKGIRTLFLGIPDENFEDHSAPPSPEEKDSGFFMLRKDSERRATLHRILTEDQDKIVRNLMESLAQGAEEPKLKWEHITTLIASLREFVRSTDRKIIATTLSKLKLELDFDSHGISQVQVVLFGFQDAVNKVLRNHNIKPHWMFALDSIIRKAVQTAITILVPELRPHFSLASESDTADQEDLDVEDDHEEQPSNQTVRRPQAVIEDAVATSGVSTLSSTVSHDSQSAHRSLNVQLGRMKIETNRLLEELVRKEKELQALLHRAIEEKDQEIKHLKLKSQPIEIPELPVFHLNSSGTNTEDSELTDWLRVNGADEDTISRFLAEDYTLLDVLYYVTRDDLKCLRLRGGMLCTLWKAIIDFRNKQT

[2] = Unbound brain-to-plasma concentration ratio in rat at 1 mg/kg, iv by LC-MS/MS analysis; format: ADME, organism-based; conditions: brain and plasma, read-out: K(p,uu,brain)
[3] = biological target: T1, Mitogen-activated protein kinase kinase kinase 5; test: Inhibition of ASK1 (unknown origin) incubated for 2 hrs
[4] = biological target: T1, Mitogen-activated protein kinase kinase kinase 5; test: Inhibition of ASK1 (unknown origin)
[5] = Half life in rat 5 mg/kg, po measured upto 24 hrs by LC-MS/MS analysis; format: ADME, organism-based; conditions: in vivo
[6] = Cmax in rat 5 mg/kg, po measured upto 24 hrs by LC-MS/MS analysis; format: ADME, organism-based; conditions: in vivo
[7] = AUC (0 to t) in rat 5 mg/kg, po measured upto 24 hrs by LC-MS/MS analysis; format: ADME, organism-based; conditions: in vivo
[8] = biological target: T1, Mitogen-activated protein kinase kinase kinase 5; test: Inhibition of N-terminal his-tagged human ASK1 (649 to 946 residues) expressed in Escherichia coli using [gamma-32p]ATP as substrate by liquid scintillation counting analysis
[9] = biological target: T1, Mitogen-activated protein kinase kinase kinase 5; test: Inhibition of human ASK1 using STK-substrate biotin as substrate by TR-FRET assay
[10] = biological target: T1, Mitogen-activated protein kinase kinase kinase 5; test: Inhibition of human recombinant ASK1 by HTRF assay
[11] = biological target: T1, Mitogen-activated protein kinase kinase kinase 5; test: Inhibition of ASK1 (unknown origin) incubated for 0.5 to 5 hrs by TR-FRET assay
[12] = biological target: 3-phosphoinositide-dependent protein kinase 1 (Homo sapiens) (UniProt O15530); test: Inhibition of PDK1 (unknown origin) at 10 uM relative to control
Sequence of 3-phosphoinositide-dependent protein kinase 1 (Homo sapiens) (O15530 whole entry, looked up): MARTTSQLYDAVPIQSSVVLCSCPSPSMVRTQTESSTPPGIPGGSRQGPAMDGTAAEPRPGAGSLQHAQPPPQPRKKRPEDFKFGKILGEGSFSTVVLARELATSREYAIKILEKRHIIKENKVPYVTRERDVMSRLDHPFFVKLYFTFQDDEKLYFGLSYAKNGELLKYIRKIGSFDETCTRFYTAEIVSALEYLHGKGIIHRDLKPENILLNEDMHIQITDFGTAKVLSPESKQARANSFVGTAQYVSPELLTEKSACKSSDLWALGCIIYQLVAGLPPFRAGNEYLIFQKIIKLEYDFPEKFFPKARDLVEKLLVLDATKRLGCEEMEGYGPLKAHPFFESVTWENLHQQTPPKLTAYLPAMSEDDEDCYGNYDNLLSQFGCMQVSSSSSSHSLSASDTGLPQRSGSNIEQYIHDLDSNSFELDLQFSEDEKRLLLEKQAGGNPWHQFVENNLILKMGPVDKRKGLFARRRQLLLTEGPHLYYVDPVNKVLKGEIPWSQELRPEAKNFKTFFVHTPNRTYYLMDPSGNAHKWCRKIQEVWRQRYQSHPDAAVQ

[13] = biological target: T1, Mitogen-activated protein kinase kinase kinase 5; test: Inhibition of ASK1 (unknown origin) preincubated with compound for 30 mins followed by ATP addition and measured after 120 mins by HTRF analysis
[14] = biological target: T1, Mitogen-activated protein kinase kinase kinase 5; test: Inhibition of human ASK1
[15] = Toxicity in C57BL/6J mouse harboring SOD1 mutant assessed as animal survival (reference value: 1.06%); conditions: in vivo, read-out: Activity

- pIC50 [1]: ≥ 6.00
- Kp uu [2]: ≥ 0.1
- pIC50 [3]: > 7.00
SMILES: C[C@H]1CCCOc2ncccc2C(=O)Nc2cccc(n2)-c2nncn21

SMILES: CC(C)n1cnnc1-c1nc(NC(=O)c2cc3c(cc2F)CNCc2nc(C4CC4)cn2-3)cs1
- pIC50 [4]: < 7.30

- half-life [5]: 2.9 h
- Cmax [6]: 2270 ng/mL
- AUC(0-t) at 24 h [7]: 9430 ng·h/mL
SMILES: Cc1cc2c(cc1-n1cnc(C3CC3)c1)C(=O)N(c1cccc(-c3nncn3C(C)C)n1)C2C (stereo not given)

- pIC50 [8]: 6.39
SMILES: C=C(C)[C@@H]1CC[C@]2(C(=O)O)CC[C@]3(C)[C@H](C[C@@H](O)[C@@H]4[C@@](C)([C@H](O)CC(=O)O)[C@H](C(=C)C)CC[C@]43C)[C@@H]12

- pEC50 [9]: ≥ 5.30
SMILES: Cc1ccc(N(C)C(=O)Nc2cccc(-c3nncn3C(C)C)n2)c(F)c1

- pIC50 [10]: 9.15
SMILES: CC(C)n1cnnc1-c1cccc(C(=O)Nc2cc(-n3cnc(C4CC4)c3)ccn2)n1

- pIC50 [4]: < 7.30
SMILES: CC(C)n1cnnc1-c1nc(NC(=O)c2cc3c(cc2F)CCCc2nc(C4CC4)cn2-3)cs1

- pIC50 [4]: 9.03
SMILES: CC(C)n1cnnc1-c1cccc(N2Cc3ccc(-n4cnc(C5CC5)c4)cc3C2=O)n1

- pEC50 [9]: ≥ 6.30
- pIC50 [10]: 7.30
SMILES: CC(C)n1cnnc1-c1cccc(NC(=S)Nc2ccccn2)n1

- pIC50 [4]: 8.78
SMILES: COc1cc2ccn(-c3cccc(-c4nncn4C(C)C)n3)c(=O)c2cc1-n1cnc(C2CC2)c1

- pIC50 [4]: 8.57
SMILES: CC(C)n1cnnc1-c1cccc(-n2ccc3ccc(-n4cnc(C5CC5)c4)cc3c2=O)n1

- pEC50 [9]: ≥ 6.30
- pIC50 [10]: 7.30
SMILES: Cc1ccc(-n2ccn(-c3cccc(-c4nncn4C(C)C)n3)c2=O)c(F)c1

- pIC50 [11]: 8.39
SMILES: Cc1cc(F)c(C(=O)Nc2cccc(-c3nnc4sccn34)n2)cc1-n1cnc(C2CC2)c1

- pEC50 [9]: ≥ 7.30
- pIC50 [10]: ≥ 7.30
SMILES: C[C@H](CO)n1cnnc1-c1cccc(N2CCN(c3ccc(C(=O)N4CCCCC4)cn3)C2=O)n1

- pIC50 [11]: 7.32
SMILES: Cc1cc(F)c(C(=O)Nc2cccc(-c3nnc4n3CCNC4)n2)cc1-n1cnc(C2CC2)c1

- pIC50 [4]: 8.29
- pIC50 [11]: 8.41
SMILES: CC(C)n1nnnc1-c1cccc(N2C(=O)c3cc(-n4cnc(C5CC5)c4)ccc3C2(C)C)n1

- pIC50 [11]: 8.00
SMILES: Cc1cc(F)c(C(=O)Nc2cccc(-c3nnc4n3CCS(=O)(=O)C4)n2)cc1-n1cnc(C2CC2)c1

- pIC50 [4]: > 8.00
SMILES: CC(C)n1cnnc1-c1cccc(NC(=O)c2cc3c(cc2F)CNCCc2c(C4CC4)ncn2-3)n1

- inhibition [12]: 0.04%
SMILES: CC(C)n1cnnc1-c1cccc(NC(=O)c2cc(-n3cnc(C4CC4)c3)ccn2)c1

- pIC50 [4]: > 8.00
SMILES: CC(C)n1cnnc1-c1cccc(NC(=O)c2cc3c(cc2F)CCCc2nc(C4CC4)cn2-3)n1

- pIC50 [13]: 7.96
SMILES: CC(C)n1cnnc1-c1cccc(-n2cnc3ccc(-n4cnc(C5CC5)c4)cc3c2=O)n1

SMILES: COc1cc2nncc(Oc3ccc(NC(=O)c4cn(C(C)C)c5c(c4=O)CCC=C5)cc3)c2cc1OC
- pIC50 [14]: 8.22
- survival [15]: 1.08%

- pIC50 [10]: 7.30
SMILES: Cc1ccc(-c2cnc(-c3cccc(-c4nncn4C(C)C)n3)s2)c(F)c1

- pIC50 [11]: 8.11
SMILES: Cc1cc(F)c(C(=O)Nc2cccc(-c3nnc4ccccn34)n2)cc1-n1cnc(C2CC2)c1

- pIC50 [4]: 8.49
SMILES: CC(C)n1cnnc1-c1cccc(N2C(=O)c3ccc(-n4cnc(C5CC5)c4)cc3C2(C)C)n1

SMILES: CC(C)n1cnnc1-c1nc(NC(=O)c2cc3c(cc2F)C(=O)NCc2nc(C4CC4)cn2-3)cs1
- pIC50 [4]: < 7.30
